From ChEMBL document CHEMBL1129947, “(+)-7-Deaza-5'-noraristeromycin as an anti-trypanosomal agent” (J Med Chem, 1997) come the findings set out here.

Test [1] relates to Trypanosoma brucei. Description: In vitro inhibitory concentration against Trypanosoma brucei LAB 110 EATRO test strain. It counts as functional, organism-based.
Test [2] relates to Trypanosoma brucei. Briefly: In vitro inhibitory concentration against Trypanosoma brucei rhodesiense strain KETRI 243. Format: functional, organism-based.
Another test deals with Adenosylhomocysteinase (Mus musculus, UniProt P50247). Description: In vitro inhibitory concentration against purified S-Adenosyl-homocysteine hydrolase isolated from murine L929 cells.
Test [3] concerns Trypanosoma brucei. Description: In vitro inhibitory concentration against Trypanosoma brucei rhodesiense strain KETRI 269. Format: functional, organism-based.
The subject of test [4] is Trypanosoma brucei. Briefly: In vitro inhibitory concentration against Trypanosoma brucei rhodesiense strain KETRI 243-As-103. It counts as functional, organism-based.

Adenosylhomocysteinase, sequence (P50247 whole entry): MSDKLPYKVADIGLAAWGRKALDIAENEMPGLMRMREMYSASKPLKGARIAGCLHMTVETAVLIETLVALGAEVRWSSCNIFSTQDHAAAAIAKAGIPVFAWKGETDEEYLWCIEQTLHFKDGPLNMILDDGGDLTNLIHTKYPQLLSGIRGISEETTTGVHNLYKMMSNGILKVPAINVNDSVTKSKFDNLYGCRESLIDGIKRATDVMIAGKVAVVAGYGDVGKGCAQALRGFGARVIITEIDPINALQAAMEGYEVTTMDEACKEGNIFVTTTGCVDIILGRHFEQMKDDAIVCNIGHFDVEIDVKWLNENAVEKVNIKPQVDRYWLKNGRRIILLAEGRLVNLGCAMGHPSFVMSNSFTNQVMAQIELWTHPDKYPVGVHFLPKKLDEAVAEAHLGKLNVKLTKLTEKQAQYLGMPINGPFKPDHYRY

As for `Nc1ncnc2c1ccn2[C@H]1C[C@@H](O)[C@H](O)[C@@H]1O`, the IC50 with Trypanosoma brucei [1] was 165 nM; with Trypanosoma brucei [2] it was 165 nM; on Adenosylhomocysteinase it was > 500000 nM; in the test on Trypanosoma brucei [3] it was 165 nM; with Trypanosoma brucei [4], 5300 nM.
Turning to `Nc1ncnc2c1ccn2[C@@H]1C[C@H](O)[C@@H](O)[C@H]1O`, the IC50 at Adenosylhomocysteinase is > 500000 nM.

By IC50 is commonly meant the concentration that inhibits the measured activity by half. The low end stands for inhibition by little substance, the high end for a need for much substance.
